Test results as given in paper PMC10604444, “Extra-Synaptic GABAA Receptor Potentiation and Neurosteroid-Induced Learning Deficits Are Inhibited by GR3027, a GABAA Modulating Steroid Antagonist” (Biomolecules, 2023).
Where two headings read alike, the source gives them in different places.

Legend:
[1] = biological target: T1, human α1β2γ2L GABAA receptors expressed in HEK-293 cells (Homo sapiens, UniProt P14867+P47870); assay: Whole-cell patch clamp of GABA/THDOC-evoked currents, synaptic protocol (Dynaflow); type: cell-based; settings: for Reduction of AUC of THDOC-induced GABA response: n = 8, p ≤ 0.05
T1 construct: The coding regions of the human GABAA receptor subunits were then amplified by PCR; expressed in transfected cells; host or cells: HEK-293 (permanently transfected, pcDNA3.1 vectors, CMV promoter)
Excerpt: Wild-type HEK-293 cells (passage 4, originating from Pasteur Institute, Paris, France) were permanently transfected with vectors including the human CMV promoter for the constitutive expression of the human α5, β3, and γ2L GABAA receptor subunits (α5β3γ2L) or the human α1, β2, and γ2L GABAA receptor subunits (α1β2γ2L). The production of the plasmids used in the sub-cloning of the different subunits is published in Rahman et al..
The electrophysiological recordings from HEK-293 cells were performed with the whole-cell voltage clamp technique, at room temperature (21–23 °C). After compensation for liquid junction potential, a steady holding potential of −17 mV was used in all experiments. Patch pipettes were pulled from borosilicate glass (Bergman Labora AB, Danderyd, Sweden) and polished to a resistance of 2–5 MΩ when filled with intracellular solution and immersed in a bath (extracellular) solution (for solutions, see below). The pipette tips were filled by immersion in standard intracellular solution and subsequent back-filling with intracellular solution. The recordings were made using an Axopatch 200B amplifier and a Digidata 1322A (Axon Instruments, Foster City, CA, USA) controlled via a Pentium processor-based personal computer. Data were acquired using the pCLAMP software sampled at 10 kHz, filtered at 2–10 kHz, and analyzed with Clampfit (versions 9.0, both from Axon Instruments, Foster City, CA, USA). A series resistance between the pipette and cell membrane not higher than 20 MΩ was accepted. No series resistance compensation was used. The stability of series resistance was monitored repeatedly from the time course of capacitative transients during the experiments. The measured liquid junction potential between extracellular and intracellular solutions was subtracted from all data presented, as previously described. All experiments were performed at room temperature (21–23 °C).
In all electrophysiological experiments, tetrahydro-deoxycorticosterone (THDOC) was used as a positive GABAA receptor steroid modulator (PAM) to mimic the effect of AP on central GABAA channels. […] THDOC (Sigma Chemical Co., St. Louis, MO, USA) and GR3027 (3α-ethynyl, 3β-hydroxyl, 5α-androstan-17-oxime, golexanolone, Umecrine Cognition AB, Stockholm, Sweden) were dissolved in dimethyl sulfoxide (DMSO) using ultrasound, for the preparation of solutions containing a final DMSO concentration of 0.1%. GR3027 was discovered within a series of molecules developed and patented by T. Bäckström and G. Ragagnin, (patent WO 2008/063128). All solutions were complemented with DMSO to achieve the same final concentration as in the steroid-containing test solution. GABA (Sigma Chemical Co., St. Louis, MO, USA) was first prepared as a stock solution (dissolved in EC with ultrasonic treatment) to the desired concentrations, with the corresponding final concentrations of test solutions (30 µM and 0.3 µM; see protocols below). GABA was added to the experimental solution without a change in osmolarity.
The experimental protocols were designed to mimic the physiological conditions of the tonic (extra-synaptic) and phasic (synaptic) activation of GABAA receptors observed in central neurons, depending on the subunit compositions, respectively. GABA-evoked currents in HEK-293 cells expressing extra-synaptic (α5β3γ2L) or synaptic (α1β2γ2L) types of GABAA receptors were studied using the conventional whole-cell patch clamp technique. To mimic the physiological GABA exposure, the HEK-293 cells expressing α1β2γ2L GABAA receptors were exposed to short applications (40 ms) of 30 µM GABA, whereas HEK-293 cells expressing α5β3γ2L GABAA receptors were exposed to prolonged applications (6 s) of 0.3 µM GABA, either in the absence or presence of THDOC and/or GR3027.

[2] = Pharmacokinetic analysis of GR3027 in plasma after i.v. and p.o. administration; type: in vivo, rat; settings: for AUC: male Sprague-Dawley rats, 0-24 h; for Cmax / Tmax / half-life: rat plasma; for half-life: read-out: t½; for k el: in vivo
Protocol: Ten male Sprague-Dawley rats were used to assess PK with GR3027 given orally and intravenously, respectively. Animals were kept at room temperature with artificial light under a 12/12 h light/dark schedule, and with food and water ad libitum. Animals were given 2 mg/kg i.v. in 10% 2-hydroxypropyl-beta-cyclodextrin or 10 mg/kg orally. Approximately 50 µL blood samples were taken at 15 min, 30 min, 1 h, 2 h, 4 h, 8 h, 12 h, and 24 h after oral dosing, and 5 min, 15 min, 30 min, 1 h, 2 h, 4 h, 8 h, 12 h, and 24 h after intravenous dosing, and plasma was frozen. The analysis method has been described earlier and is here briefly described. All the samples were analyzed in triplicate by Admescope Ltd., Oulu, Finland, using an LC/MS/MS method developed for the purpose, using a Waters ACQUITY UPLC_Waters XEVO-TQS triple-quadrupole mass spectrometer.
Blood/plasma samples were obtained at several time points after the i.v. and p.o. administration of GR3027 to rats. The maximum plasma concentration (Cmax) and the time to Cmax (Tmax) were derived directly from the plasma concentration data. The results are shown in Table 4 as the area under the concentration–time curve (AUC, 0–24 h), elimination half-life in plasma (t1/2), elimination rate constant (Ke), total body clearance (CL), and mean residence time (MRT), i.e., how long GR3027 remained in the body. The tentative oral bioavailability (F) was calculated by dividing the dose-normalized AUC after p.o. administration by the dose-normalized AUC after i.v. administration, i.e., F = [(AUC(p.o.)/Dose(p.o.))///(AUC(i.v)/Dose (i.v.))], and reported as percentages (%).

[3] = male, Sprague-Dawley, iv, 2 mg/kg i.v., mean
[4] = male, Sprague-Dawley, po, 10 mg/kg p.o., mean

T1 sequence (P14867 28-456): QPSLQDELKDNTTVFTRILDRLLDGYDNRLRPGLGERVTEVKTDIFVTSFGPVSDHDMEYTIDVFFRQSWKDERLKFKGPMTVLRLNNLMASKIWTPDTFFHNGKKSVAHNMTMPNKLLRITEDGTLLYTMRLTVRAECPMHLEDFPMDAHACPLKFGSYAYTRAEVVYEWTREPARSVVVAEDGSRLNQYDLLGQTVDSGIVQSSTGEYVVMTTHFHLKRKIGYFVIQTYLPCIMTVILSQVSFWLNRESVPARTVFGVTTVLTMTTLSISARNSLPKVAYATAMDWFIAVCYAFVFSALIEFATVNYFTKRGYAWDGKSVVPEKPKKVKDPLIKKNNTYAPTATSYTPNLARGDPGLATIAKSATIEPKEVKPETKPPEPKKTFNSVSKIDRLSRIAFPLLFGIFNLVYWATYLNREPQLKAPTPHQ
T1 sequence (P47870 25-512 limits assumed): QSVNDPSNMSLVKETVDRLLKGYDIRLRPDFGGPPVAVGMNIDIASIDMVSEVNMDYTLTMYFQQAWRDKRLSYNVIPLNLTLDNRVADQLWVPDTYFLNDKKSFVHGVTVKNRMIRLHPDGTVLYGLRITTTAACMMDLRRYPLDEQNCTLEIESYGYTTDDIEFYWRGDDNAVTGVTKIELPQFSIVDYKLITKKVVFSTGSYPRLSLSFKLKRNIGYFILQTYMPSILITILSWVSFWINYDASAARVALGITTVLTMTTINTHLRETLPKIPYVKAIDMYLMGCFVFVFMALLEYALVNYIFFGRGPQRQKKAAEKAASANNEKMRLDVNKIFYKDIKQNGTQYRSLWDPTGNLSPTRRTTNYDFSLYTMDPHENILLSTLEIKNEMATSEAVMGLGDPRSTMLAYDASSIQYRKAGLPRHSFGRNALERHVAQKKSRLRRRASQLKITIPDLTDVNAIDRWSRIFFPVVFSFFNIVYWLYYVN
T1 sequence (P18507 40-475 partner): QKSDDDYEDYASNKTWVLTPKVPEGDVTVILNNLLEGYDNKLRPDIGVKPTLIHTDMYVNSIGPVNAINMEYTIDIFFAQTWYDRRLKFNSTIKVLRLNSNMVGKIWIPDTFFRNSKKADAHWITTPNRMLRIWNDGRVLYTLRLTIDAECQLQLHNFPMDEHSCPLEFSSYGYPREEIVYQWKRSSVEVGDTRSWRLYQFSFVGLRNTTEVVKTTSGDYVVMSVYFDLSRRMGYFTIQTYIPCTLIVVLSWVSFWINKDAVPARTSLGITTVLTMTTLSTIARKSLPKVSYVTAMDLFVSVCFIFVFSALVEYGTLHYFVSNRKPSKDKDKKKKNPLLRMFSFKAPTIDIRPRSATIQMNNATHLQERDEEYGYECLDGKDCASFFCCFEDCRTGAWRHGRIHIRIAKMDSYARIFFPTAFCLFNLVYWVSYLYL

C#C[C@]1(O)CC[C@@]2(C)[C@@H](CC[C@@H]3[C@@H]2CC[C@]2(C)/C(=N/O)CC[C@@H]32)C1 [GR3027, 3α-ethynyl-3β-hydroxyl-5α-androstan-17-oxime]
Reduction of AUC of THDOC-induced GABA response ([1]; 1 µM GR3027 + 200 nM THDOC + 30 µM GABA (40 ms)): −11.6 ± 3.1 | Change of AUC of GABA-mediated current, GR3027 alone ([1]; 1 µM GR3027 + 30 µM GABA, no THDOC, NS, n = 21): –3.1 ± 1.7% | Reduction of AUC of THDOC-induced GABA response ([1]; 3 µM GR3027 + 200 nM THDOC + 30 µM GABA (40 ms)): −22.9 ± 2.8 | Decrease in THDOC-mediated baseline holding current shift ([1]; 3 µM GR3027, 200 nM THDOC, absence of GABA, n = 7, p ≤ 0.05): −38.1 ± 7.6% | Effect on baseline holding current or 30 µM GABA-mediated currents, GR3027 alone ([1]; GR3027 alone, no THDOC): No difference | Effect on THDOC-induced GABA currents at lower concentrations ([1]; GR3027 below 1 µM (tested from 0.1 µM), 200 nM THDOC + 30 µM GABA): no reduction | AUC ([2]; 2 mg/kg i.v., plasma, mean): 2205586 min ∗ ng/mL | AUC ([2]; 10 mg/kg p.o., plasma, mean): 113568 min ∗ ng/mL | Cmax [2, 3]: 74500 ng/mL | Tmax [2, 3]: 0.0833 h | half-life [2, 3]: 11.3 h | MRT ([2]; male, Sprague-Dawley, plasma, iv, 2 mg/kg i.v., rat, mean): 0.277 h | clearance ([2]; male, Sprague-Dawley, plasma, iv, 2 mg/kg i.v., rat, mean, read-out: Cl (total body clearance)): 1.09 mL/min/kg | bioavailability ([2]; male, Sprague-Dawley, plasma, oral, 10 mg/kg p.o. vs 2 mg/kg i.v., dose-normalized AUC, rat, read-out: F (tentative oral bioavailability)): 1% | MRT ([2]; male, Sprague-Dawley, plasma, po, 10 mg/kg p.o., rat, mean): 4.73 h | Cmax [2, 4]: 504 ng/mL | Tmax [2, 4]: 0.567 h | half-life [2, 4]: 5.17 h | k el ([2]; male, Sprague-Dawley, rat, iv, 2 mg/kg): 2e-05 s⁻¹ | k el ([2]; male, Sprague-Dawley, rat, po, 10 mg/kg): 4.17e-05 s⁻¹
